According to patent US6414014B1 (Bristol-Myers Squibb Company, priority 1992, dated 2002):

Key:
[1] = Hematologic toxicity (myelotoxicity) in the randomized taxol study, weekly blood counts; format: in vivo, patients
Method: Responses were evaluated every two cycles.
Eligible patients were randomized according to a computerized randomization log. During therapy, hematology data (hemoglobin, white blood cell count, granulocytes and platelets) were collected, and toxicity assessments were continuously made. After each cycle, a physical history update was recorded, as well as tumor measurement, performance status (ECOG), hematology, chemistry (serum creatinine, billirubin, alkaline phosphatase, (SLOT (AST), CA125) and a toxicity assessment. A quality of life assessment was also made after each cycle, and every two months until six months after treatment stopped.
White blood cell (WBC) counts, absolute neutrophil count (ANC), platelet counts, and hemoglobin (Hb) concentration were the primary variables used to evaluate treatment related myelosuppression. The World Health Orgination, WHO, grades of nadir for the entire study population of 157 patients during course 1 are presented in the table below. Leukopenia and neutropenia were the most frequent and severe hemotologic adverse effects observed during the first couse of treatment. 53% (83/156) of the patients had Grade III or IV neutropenia, while 39% (61/157) had Grade III or IV leukopenia.

[2] = Hypersensitivity reactions (HSR) in the randomized taxol study; format: in vivo, patients
Method: Patients with platinum pretreated recurrent ovarian cancer were randomized to a 135 or 175 mg/m^2 dose arm, administered as a 3-hour or 24-hour IV infusion, which was repeated every three weeks. Responses were evaluated every two cycles.
A nurse remained with each patient for the first hour of each infusion. Temperature, pulse, blood pressure, and respiration were taken preinfusion, every 15 minutes for the first hour, every thirty minutes for the next 2 hours, hourly for the next 4 hours, and every other hour until the end of the infusion (for patients receiving the 24-hour infusion). Other observations were also documents, such as rash/redness of the skin, hives, vomiting, nausea, and any other symptoms including neuropathy and skin rashes.

[3] = 6-hour IV infusion every 21 days without premedication; cited from earlier work
[4] = tested on: drug-refractory ovarian cancer; settings: in vivo; cited from earlier work
[5] = TOTAL, all four arms, n = 157, course 1
[6] = arm 135/3 (mg/m^2/infusion hours), n = 39, course 1
[7] = arm 135/24 (mg/m^2/infusion hours), n = 44, course 1
[8] = arm 175/3 (mg/m^2/infusion hours), n = 29, course 1
[9] = arm 175/4 (mg/m^2/infusion hours), n = 45, course 1
[10] = TOTAL, all four arms, 528 courses analyzed
[11] = arm 135/3 (mg/m^2/infusion hours), 132 courses analyzed
[12] = arm 135/24 (mg/m^2/infusion hours), 141 courses analyzed
[13] = arm 175/3 (mg/m^2/infusion hours), 92 courses analyzed
[14] = arm 175/4 (mg/m^2/infusion hours), 163 courses analyzed

## CC(=O)O[C@H]1C(=O)[C@@]2(C)[C@H]([C@H](OC(=O)c3ccccc3)[C@]3(O)C[C@H](OC(=O)[C@H](O)[C@@H](NC(=O)c4ccccc4)c4ccccc4)C(C)=C1C3(C)C)[C@]1(OC(C)=O)CO[C@@H]1C[C@@H]2O [taxol]
[1]; 3-hour infusion, 8/68, course 1
  patients with grade 4 neutropenia: 12%
[1]; 24-hour taxol infusion, 51/88, course 1
  patients with grade 4 neutropenia: 58%
[1]; [5]
  AMC Count, WHO grade 0 nadir, patients: 37 (24) n (%)
  AMC Count, WHO grade I nadir, patients: 13 (8) n (%)
  AMC Count, WHO grade II nadir, patients: 23 (15) n (%)
  AMC Count, WHO grade III nadir, patients: 24 (15) n (%)
  AMC Count, WHO grade IV nadir, patients: 59 (38) n (%)
  Platelet Count, WHO grade 0 nadir, patients: 147 (94) n (%)
  Platelet Count, WHO grade I nadir, patients: 6 (4) n (%)
  Platelet Count, WHO grade II nadir, patients: 2 (1) n (%)
  Platelet Count, WHO grade III nadir, patients: 1 (1) n (%)
  Platelet Count, WHO grade IV nadir, patients: 1 (1) n (%)
  WBC Count, WHO grade 0 nadir, patients: 31 (20) n (%)
  WBC Count, WHO grade I nadir, patients: 29 (18) n (%)
  WBC Count, WHO grade II nadir, patients: 36 (23) n (%)
  WBC Count, WHO grade III nadir, patients: 50 (32) n (%)
  WBC Count, WHO grade IV nadir, patients: 11 (7) n (%)
[1]; all arms
  patients with severe neutropenia (WHO Grade III and IV) during at least one course: 63%
[1]; [6]
  AMC Count, WHO grade 0 nadir, patients: 18 (46) n (%)
  AMC Count, WHO grade I nadir, patients: 8 (21) n (%)
  AMC Count, WHO grade II nadir, patients: 8 (21) n (%)
  AMC Count, WHO grade III nadir, patients: 4 (10) n (%)
  AMC Count, WHO grade IV nadir, patients: 1 (3) n (%)
  Platelet Count, WHO grade 0 nadir, patients: 36 (92) n (%)
  Platelet Count, WHO grade I nadir, patients: 2 (5) n (%)
  Platelet Count, WHO grade II nadir, patients: 1 (3) n (%)
  Platelet Count, WHO grade III nadir, patients: 0 n (%)
  Platelet Count, WHO grade IV nadir, patients: 0 n (%)
  WBC Count, WHO grade 0 nadir, patients: 15 (38) n (%)
  WBC Count, WHO grade I nadir, patients: 13 (33) n (%)
  WBC Count, WHO grade II nadir, patients: 7 (18) n (%)
  WBC Count, WHO grade III nadir, patients: 3 (8) n (%)
  WBC Count, WHO grade IV nadir, patients: 1(3) n (%)
[1]; [7]
  AMC Count, WHO grade 0 nadir, patients: 6 (14) n (%)
  AMC Count, WHO grade I nadir, patients: 2 (15) n (%)
  AMC Count, WHO grade II nadir, patients: 7 (16) n (%)
  AMC Count, WHO grade III nadir, patients: 6 (14) n (%)
  AMC Count, WHO grade IV nadir, patients: 23 (52) n (%)
  Platelet Count, WHO grade 0 nadir, patients: 43 (98) n (%)
  Platelet Count, WHO grade I nadir, patients: 1 (2) n (%)
  Platelet Count, WHO grade II nadir, patients: 0 n (%)
  Platelet Count, WHO grade III nadir, patients: 0 n (%)
  Platelet Count, WHO grade IV nadir, patients: 0 n (%)
  WBC Count, WHO grade 0 nadir, patients: 4 (9) n (%)
  WBC Count, WHO grade I nadir, patients: 5 (11) n (%)
  WBC Count, WHO grade II nadir, patients: 11 (25) n (%)
  WBC Count, WHO grade III nadir, patients: 20 (46) n (%)
  WBC Count, WHO grade IV nadir, patients: 4 (9) n (%)
[1]; [8]
  AMC Count, WHO grade 0 nadir, patients: 11 (38) n (%)
  AMC Count, WHO grade I nadir, patients: 2 (7) n (%)
  AMC Count, WHO grade II nadir, patients: 3 (10) n (%)
  AMC Count, WHO grade III nadir, patients: 6 (21) n (%)
  AMC Count, WHO grade IV nadir, patients: 7 (24) n (%)
  Platelet Count, WHO grade 0 nadir, patients: 29 (100) n (%)
  Platelet Count, WHO grade I nadir, patients: 0 n (%)
  Platelet Count, WHO grade II nadir, patients: 0 n (%)
  Platelet Count, WHO grade III nadir, patients: 0 n (%)
  Platelet Count, WHO grade IV nadir, patients: 0 n (%)
  WBC Count, WHO grade 0 nadir, patients: 11 (38) n (%)
  WBC Count, WHO grade I nadir, patients: 6 (21) n (%)
  WBC Count, WHO grade II nadir, patients: 7 (24) n (%)
  WBC Count, WHO grade III nadir, patients: 5 (17) n (%)
  WBC Count, WHO grade IV nadir, patients: 0 — n (%)
[1]; [9]
  AMC Count, WHO grade 0 nadir, patients: 2 (5) n (%)
  AMC Count, WHO grade I nadir, patients: 1 (2) n (%)
  AMC Count, WHO grade II nadir, patients: 5 (11) n (%)
  AMC Count, WHO grade III nadir, patients: 8 (18) n (%)
  AMC Count, WHO grade IV nadir, patients: 28 (63) n (%)
  Platelet Count, WHO grade 0 nadir, patients: 39 (87) n (%)
  Platelet Count, WHO grade I nadir, patients: 3 (7) n (%)
  Platelet Count, WHO grade II nadir, patients: 1 (2) n (%)
  Platelet Count, WHO grade III nadir, patients: 1 (2) n (%)
  Platelet Count, WHO grade IV nadir, patients: 1 (2) n (%)
  WBC Count, WHO grade 0 nadir, patients: 1 (2) n (%)
  WBC Count, WHO grade I nadir, patients: 5 (11) n (%)
  WBC Count, WHO grade II nadir, patients: 11 (25) n (%)
  WBC Count, WHO grade III nadir, patients: 22 (49) n (%)
  WBC Count, WHO grade IV nadir, patients: 6 (13) n (%)
[1]; course 1
  severe leukopenia (grade 3 and grade 4 pooled), 24-hour versus 3-hour infusion: more frequently
[1]; course 1, 61/157, all arms
  patients with Grade III or IV leukopenia: 39%
[1]; course 1, 83/156, all arms
  patients with Grade III or IV neutropenia: 53%
[1]; course 1, two patients, all arms
  patients with severe thrombocytopenia: 1%
[1]; high dose arms, 55/74
  incidence of severe neutropenia: 74%
[1]; long-term infusion arms
  incidence of severe neutropenia: 85%
[1]; long-term infusion, 26/55
  anemia of any grade in patients with normal baseline Hb values: 47%
[1]; low dose arms, 43/83
  incidence of severe neutropenia: 52%
[1]; short-term infusion
  anemia of any grade in patients with normal baseline Hb values: 28%
[1]; short-term infusion arms
  incidence of severe neutropenia: 32%
[2]; 2 of 157 patients
  hypersensitivity reactions which required acute therapeutic intervention: 1%
[2]; 24-hour arm, course 2 at dose reduced by 20%, less than 1 ml infused
  severe hypersensitivity reaction in one patient: tachychardia and shortness of breath
[2]; 57/157, all arms
  patients exhibiting some type of hypersensitivity reaction: 35%
[2]; TOTAL, all four arms, 157 patients analyzed
  Patients reporting a HSR: 57 (36) n (%)
[2]; [10]
  Courses with a reported HSR: 136 (26) n (%)
  Type of HSR Per Course: Arrhytheria: 1 n (%)
  Type of HSR Per Course: Chest pain: 1 n (%)
  Type of HSR Per Course: Dyspriea: 5 n (%)
  Type of HSR Per Course: Ederma face: 2 n (%)
  Type of HSR Per Course: Eye disorder: 2 n (%)
  Type of HSR Per Course: Flushing: 103 n (%)
  Type of HSR Per Course: Headache: 1 n (%)
  Type of HSR Per Course: Hypertension: 1 n (%)
  Type of HSR Per Course: Hypotension: 13 n (%)
  Type of HSR Per Course: Nausea/Vomiting: 1 n (%)
  Type of HSR Per Course: Pruritis: 2 n (%)
  Type of HSR Per Course: Rash: 21 n (%)
  Type of HSR Per Course: Tachychardia: 1 n (%)
[2]; arm 135/3 (mg/m^2/infusion hours), 39 patients analyzed
  Patients reporting a HSR: 11 (28) n (%)
[2]; [11]
  Courses with a reported HSR: 23 (17) n (%)
  Type of HSR Per Course: Dyspriea: 2 n (%)
  Type of HSR Per Course: Eye disorder: 2 n (%)
  Type of HSR Per Course: Flushing: 15 n (%)
  Type of HSR Per Course: Hypotension: 1 n (%)
  Type of HSR Per Course: Pruritis: 2 n (%)
  Type of HSR Per Course: Rash: 6 n (%)
[2]; arm 135/24 (mg/m^2/infusion hours), 44 patients analyzed
  Patients reporting a HSR: 18 (41) n (%)
[2]; [12]
  Courses with a reported HSR: 44 (31) n (%)
  Type of HSR Per Course: Chest pain: 1 n (%)
  Type of HSR Per Course: Dyspriea: 3 n (%)
  Type of HSR Per Course: Flushing: 40 n (%)
  Type of HSR Per Course: Headache: 1 n (%)
  Type of HSR Per Course: Hypotension: 1 n (%)
  Type of HSR Per Course: Nausea/Vomiting: 1 n (%)
  Type of HSR Per Course: Rash: 6 n (%)
  Type of HSR Per Course: Tachychardia: 1 n (%)
[2]; arm 175/3 (mg/m^2/infusion hours), 29 patients analyzed
  Patients reporting a HSR: 12 (41) n (%)
[2]; [13]
  Courses with a reported HSR: 23 (25) n (%)
  Type of HSR Per Course: Ederma face: 1 n (%)
  Type of HSR Per Course: Flushing: 16 n (%)
  Type of HSR Per Course: Hypotension: 1 n (%)
  Type of HSR Per Course: Rash: 6 n (%)
[2]; arm 175/4 (mg/m^2/infusion hours), 45 patients analyzed
  Patients reporting a HSR: 6 (36) n (%)
[2]; [14]
  Courses with a reported HSR: 46 (28) n (%)
  Type of HSR Per Course: Arrhytheria: 1 n (%)
  Type of HSR Per Course: Ederma face: 1 n (%)
  Type of HSR Per Course: Flushing: 32 n (%)
  Type of HSR Per Course: Hypertension: 1 n (%)
  Type of HSR Per Course: Hypotension: 10 n (%)
  Type of HSR Per Course: Rash: 3 n (%)
[3]
  maximum tolerated dose: 275 mg/m^2
[4]
  activity against drug-refractory ovarian cancer: active agent
